pIC50: −log10 of the molar value. “Also recorded” adds a separate entry of the source. Where two headings read alike, the source gives them in different places.
Assays:
[1] = test system: Myc-Max transcriptional activity; assay: Cignal c-Myc luciferase reporter assay in LNCaP cells; type: cell-based; conditions: Homo sapiens
Description: (§1) Cell transfection was performed using TransIT-2020™ transfection reagents according to the manufacturer's instructions (Mirus™). LNCaP cells were plated at 10000 cells per well and treated for 1 day with the indicated concentration of compound. Myc reporter activity was measured using the Cignal Myc Reporter Assay Kit™ from Qiagen™ (#336841) according to the manufacturer's instructions. For the UBE2C reporter assay, 22rv1 cells were plated at 10000 cells per well in 96-well plates in RPMI media supplemented with 5% charcoal-stripped serum (CSS) and treated for 1 day with 1 μM, 10 μM and 25 μM of compound.
Compounds were subjected to experimental evaluation using the commercially available transcriptional assay Cignal c-Myc luciferase reporter assay in LNCaP cells. […] A transiently transfected Myc-driven luciferase reporter allowed the monitoring of Myc-regulated signal in LNCaP upon treatment with the in silico identified compounds.

LNCaP cells [2] = assay: LNCaP cell viability (PrestoBlue); type: cell-based; conditions: Homo sapiens; for pIC50: 96 hours, 0-25 μM, read-out: IC50 LNCaP cell proliferation / viability
Description: (§2) LNCaP were plated at 5000 cells per well in RPMI 1640 containing 5% CSS in a 96-well plate, treated with test compounds (0-25 μM) for 96 hours. Cell density was measured using the PrestoBlue™ assay according to the manufacturer's protocol. The percentage of cell survival was normalized to the cell density of control wells treated by vehicle. Viability of Myc-negative […] cells was done similarly but in DMEM supplemented with 5% CSS.
(§3) The effect of hit compounds on Myc-driven cell proliferation was evaluated by measuring the cell viability of LNCaP cells after treatment with increasing concentrations of compounds.

[3] = Cell viability of Myc negative (c-Myc knockout) HO15.19 cells; type: cell-based; conditions: rat, HO15.19 cells (c-Myc knockout, Myc-negative); 25 μM; read-out: % inhibition of Myc negative HO15.19 cells (cytotoxicity)
Description: as §2, §3

Myc-Max complex = molecular target: T1, Myc-Max complex (Homo sapiens, UniProt P01106+P61244); assay: Biolayer interferometry of Myc-Max binding to biotinylated E-box DNA; conditions: for Myc-Max interaction with immobilized E-box DNA: 500 μM compound (FIG. 3C); for BLI binding: TABLE 2
T1 construct: GST tagged Myc (residues 368-454); Histidine tagged Max (residues 23-102); made in house; host or cells: E. coli BL21-DE3
T1 sequence (P01106 368-454): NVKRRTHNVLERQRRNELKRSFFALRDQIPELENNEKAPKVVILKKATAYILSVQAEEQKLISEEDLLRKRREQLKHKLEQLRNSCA
T1 sequence (P61244 23-102): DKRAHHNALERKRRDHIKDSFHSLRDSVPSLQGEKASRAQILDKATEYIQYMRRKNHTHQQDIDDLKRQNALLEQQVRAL
Description: Histidine tagged Max (residues 23-102) and GST tagged Myc (residues 368-454) were overexpressed in E. coli BL21-DE3 cells. Cells were co-lyzed in lysis buffer (20 mM Tris pH 8, 500 mM NaCl, 5% glycerol, 10 mM imidazole, 8 mM BME, 2.1 mM PMSF). After sonication and centrifugation, the complex was first purified by using a Ni-NTA affinity resin. After overnight dialysis to remove the imidazole, the protein sample was applied to a size exclusion chromatography equilibrated with (20 mM Tris pH 8, 150 mM NaCl, 5% glycerol, 0.2 mM TCEP). Fractions containing equal amount of Myc and Max on SDS PAGE were collected and used for the binding assay. The presence of both proteins was validated by Western blot using a specific antibody of each protein (Max (h2) Sc-8011 and c-Myc (9E10) Sc-40, Santa Cruz Biotechnology™)
The direct interaction between biotinylated E-box oligo ([…]) immobilized on a streptavidin biosensor and a purified Myc-Max complex (0.05 mg/ml) was quantified by BLI using OctetRED (ForteBio™). The DNA was first bound to the super-streptavidin sensors over 1000 sec at 25° C. The sensors were next moved into wells containing the reaction buffer (20 mM Tris pH 8, 150 mM NaCl, 5% glycerol, 0.2 mM TCEP, 5% dimethylsulfoxide) for measuring the baseline and next into the Myc-Max complex alone or in presence of the tested inhibitors to study the association of the complex to the DNA.
Direct Binding and disruption of protein-DNA interaction. To study the direct effect of our hit compounds VPC-70063 and VPC-70067 on the interaction between Myc-Max heterodimer and the DNA, we used Bio-Layer Interferometry (BLI, ForteBio™). This technique is a label-free technology allowing the measurement of direct interactions between two partners, one immobilized on a sensor and the other one present in a solution. We applied this technology to study the disruption of the interaction between a biotinylated E-box oligo immobilized on a streptavidin biosensor and a purified Myc-Max complex in presence of our compounds. Therefore, histidine-tagged Max (residues 23-102) and GST tagged Myc (residues 368-454) were overexpressed and co-purified. The fraction containing equal amount of Myc and Max was collected and used for the binding assay (FIG. 3B). The presence of both proteins was validated by Western blot using a specific antibody of each protein. […] Additionally, we tested the ability of our best compound VPC-70063 to disrupt the interaction of MYC/MAX with DNA in a dose dependent manner.

Myc-Max interaction = molecular target: T2, Myc-Max interaction (Homo sapiens, UniProt P01106); assay: Mammalian two-hybrid assay in PC3 cells; type: cell-based; conditions: various concentrations
T2 construct: expressed in transfected cells; host or cells: PC3 cells
T2 sequence (P01106 whole entry): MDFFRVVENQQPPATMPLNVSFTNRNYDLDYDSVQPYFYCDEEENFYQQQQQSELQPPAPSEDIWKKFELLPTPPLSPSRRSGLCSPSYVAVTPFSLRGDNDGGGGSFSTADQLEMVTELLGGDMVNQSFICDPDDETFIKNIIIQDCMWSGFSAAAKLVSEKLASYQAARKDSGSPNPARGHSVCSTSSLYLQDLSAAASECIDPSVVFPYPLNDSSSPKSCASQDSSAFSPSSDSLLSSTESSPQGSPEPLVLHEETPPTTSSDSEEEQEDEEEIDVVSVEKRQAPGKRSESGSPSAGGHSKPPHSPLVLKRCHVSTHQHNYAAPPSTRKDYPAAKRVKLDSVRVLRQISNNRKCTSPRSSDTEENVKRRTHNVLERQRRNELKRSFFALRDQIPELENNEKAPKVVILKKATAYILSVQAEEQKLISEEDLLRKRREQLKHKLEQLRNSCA
Description: Full lengths Myc and Max were cloned in pBIND and pACT plasmids (CheckMate™, Promega™), respectively. PC3 cells in RPMI 1640 supplemented with 5% FBS were seeded in 96-well plates at 5,000 cells/well. After 24 hours, cells were transfected with 15 ng of pACT-Max, 19.5 ng of pBIND-Myc, and 13.6 ng of the reporter plasmid PG5-luciferase. After 24 hours, cells were treated with various concentrations of the tested inhibitors. Cells were lysed the next day, and the luminescence signal was measured after adding 50 μL of luciferase assay reagent (Promega™). Each measurement was done in 4 replicates with biological replicates of 3. Luciferase levels corresponding to Myc-Max interactions were measured and normalized to a control provided by the commercial kit to discard non-specific effect due to toxicity or direct luciferase inhibition.
The effect of inhibitors of Myc-Max interaction was studied by using a mammalian two hybrid assay. Full lengths Myc and Max were cloned in pBIND and pACT plasmids (CheckMate™, Promega™), respectively. Luciferase levels corresponding to Myc-Max interactions were measured and normalized to a control provided by the commercial kit to discard non-specific effect due to toxicity or direct luciferase inhibition.

[4] = test system: Myc-Max/UBE2C downstream pathway; assay: UBE2C promoter luciferase reporter assay in 22rv1 cells; type: cell-based; conditions: for inhibition at 25 µM: Homo sapiens
Description: as §1
Myc inhibition was recently reported to reduce levels of the constitutively active androgen receptor splice variant AR-V7 in 22rv1 cells. […] The dose-dependent reduction of luciferase levels by the identified hits indicates a Myc-related reduction of AR-V7 level in the cells (see TABLE 1). […] The AR-V7 reduction with the hits was confirmed by Western blot (FIG. 2B).

HO15.19 cells = assay: Cell viability of Myc negative (c-Myc knockout) HO15.19 cells; type: cell-based; conditions: for inhibition at 12 µM: read-out: % inhibition Myc K.O cells (12 uM)
Description: as §2, §3

LNCaP cells [5] = assay: PARP cleavage (apoptosis) by Western blot in LNCaP cells; type: cell-based; conditions: for PARP cleavage / apoptosis: LNCaP cells, Western blot; for PARP effect: TABLE 2, LNCaP cells
Description: After 48 hours of treatment with Myc compounds, LNCaP cells were lysed, and protein sample preparation followed by Western blotting were performed. Blots were incubated with primary antibodies against c-Myc, PARP (Sigma™ 084M4766V), PARP cleaved-Asp214 (Sigma™ SAB4500487) and β-Actin (Sigma™ A2066) overnight at 4° C., followed by appropriate peroxidase-conjugated secondary antibodies. β-actin served as an internal control. Visualization of the immunocomplexes was done by an enhanced chemiluminescence detection system (Millipore™) followed by exposure to X-ray films.
Apoptosis. Myc inhibition induces cell death by cell cycle arrest and apoptosis. Cleavage of PARP-1 by caspases is considered a hallmark of apoptosis and so we measured the ability of compounds to induce PARP cleavage after treatment.

[6] = LNCaP, 24 h, LNCaP cells, TABLE 1, read-out: Myc-Max transcriptional activity % inhibition (25 μM)
[7] = LNCaP, TABLE 3, read-out: % Inhibition 25 μM
[8] = LNCaP, TABLE 2, assay not named, values match Myc-Max transcriptional activity, read-out: IC50
[9] = LNCaP cells, dose response, Cignal c-Myc kit, read-out: IC50 Myc-Max transcriptional activity
[10] = LNCaP, TABLE 4, read-out: % Inhibition (25 μM)

SMILES	inhibition at 25 µM [1, 6] [%]	pIC50 (LNCaP cells [2])	inhibition at 25 µM [4] [%]	inhibition at 25 µM [1, 7] [%]	pIC50 [1, 8]	inhibition at 12 µM (HO15.19 cells; Rattus norvegicus, HO15.19) [%]	PARP effect (LNCaP cells [5])	BLI binding (Myc-Max complex)	further results
O=[N+]([O-])c1ccc(Nc2ccccc2-c2ccccc2)c2nonc12 [Compound 10074-G5, reference compound]	88	5.06	–	–	–	–	–	–	inhibition at 96 h, 25 µM [3]: 37%; Myc-Max interaction with immobilized E-box DNA (Myc-Max complex): prevented from interacting with the immobilized DNA; effect on Myc-Max interaction (Myc-Max interaction): did not show any effect
CCc1ccc(/C=C2\SC(=S)NC2=O)cc1 [Compound 10058-F4, [Z,E]-5-[4-ethylbenzylidine]-2-thioxothiazolidin-4-one, reference compound]	–	4.74	70	–	–	–	–	–	–
FC(F)(F)c1cc(NC(=S)NCc2ccccc2)cc(C(F)(F)F)c1 [VPC-70063, 1-benzyl-3-(3,5-bis(trifluoromethyl)phenyl)thiourea]	106	5.60	94	106	5.05	35	strong	strong	pIC50 [1, 9]: 5.05; reduction of UBE2C promotor activity [4]: highest reduction of UBE2C promotor activity; inhibition at 3 µM (LNCaP cells [2]; 3 μM, read-out: % of LNCaP cells inhibited): 70%; inhibition at 96 h, 25 µM [3]: 40%; effect on c-Myc knockout cells (HO15.19 cells; 3 μM): no significant effect; inhibition at 2.5 µM (HO15.19 cells; Rattus norvegicus, HO15.19, 2.5 μM (IC50 in LNCaP cells)): ~7%; PARP cleavage / apoptosis (LNCaP cells [5]): inducing PARP cleavage; also recorded: induces apoptosis; Myc-Max interaction with immobilized E-box DNA (Myc-Max complex): prevented from interacting with the immobilized DNA; effect on Myc-Max/DNA complex dissociation (Myc-Max complex; concentration below 100 μM): did not see any significant effect; MYC/MAX binding to DNA (Myc-Max complex; concentration higher than 100 μM): dose response decrease of the MYC/MAX binding to DNA; effect on Myc-Max interaction (Myc-Max interaction): dose response inhibition of the interaction between the two proteins
CC(=O)Nc1ccc(Nc2cc(Cl)c(C(F)(F)F)cc2[N+](=O)[O-])cc1 [VPC-70033]	81	–	51	81	5.00	–	nil	weak	–
O=C(NCc1cnn(Cc2ccccc2)c1)[C@@H]1COc2ccccc2O1 [VPC-70215]	–	–	–	101	4.70	29	weak	–	–
O=C(NNc1ccc(C(F)(F)F)cc1[N+](=O)[O-])c1cnccn1 [VPC-70127]	–	–	–	–	6.00	19	strong	weak	inhibition at 25 µM ([1]; LNCaP, TABLE 6, read-out: % Inhibition 25 μM): 106%
O=C(CCc1c[nH]c2ccccc12)Nc1nc2ccccc2[nH]1 [VPC-70223]	–	–	–	103	5.00	40	–	–	–
S=C(NCc1ccc(Cl)c(Cl)c1)Nc1cccnc1 [VPC-70053]	73	–	50	73	4.96	–	–	–	–
O=C1NC(=S)S/C1=C\c1ccccc1C(F)(F)F [VPC-70067]	98	4.95	71	–	4.66	3	good	strong	inhibition at 25 µM [1, 10]: 98%; pIC50 [1, 9]: 4.64; PARP cleavage / apoptosis (LNCaP cells [5]): inducing PARP cleavage; Myc-Max interaction with immobilized E-box DNA (Myc-Max complex): prevented from interacting with the immobilized DNA
CC(C)(C)[C@H]1CCc2sc(C(=O)N3CCC(C(N)=O)CC3)cc2C1 [VPC-70068]	73	–	58	73	–	–	average	–	–
NC(=O)c1ccsc1NC(=O)Nc1cccc(C(F)(F)F)c1 [VPC-70021]	95	–	73	95	5.00	0	nil	average	pIC50 [1, 9]: 5.07
CN1C(=O)/C(=C\C=C\c2ccco2)SC1=S [VPC-70064]	78	–	64	–	–	–	–	–	inhibition at 25 µM [1, 10]: 78%

Source: patent US12017975B2, “Myc-Max inhibitor compound therapeutics for cancer treatment, methods and uses associated therewith” (THE UNIVERSITY OF BRITISH COLUMBIA, priority 2018, dated 2024)
